# Experimental data taken from patent US20240425898A1, “BACTERIA CLASSIFICATION AND ANALYSIS” (SYSMEX ASTREGO AB, priority 2023, published 2024).
# Test system: bacteria in the urine sample
# Assay: Gram classification by treatment impact in microfluidic device (FIGS. 10 to 13)
# Assay type: cell-based, Escherichia coli
# Conditions: LIN 4 μg/ml and VAN 32 μg/ml at T1=25 min; NaCl 340 mM at 10-22 min
# Description: In this embodiment, bacterial cells from a biological sample are exposed to four different treatments (Tr1 to Tr4). […] The combination of LIN/VAN in the first treatment Tr1 is generally effective against gram-positive bacteria but has no or little antibacterial activity against gram-negative bacteria. […] AMC used in the third treatment Tr3 has broad antibacterial activity against both gram-positive and gram-negative bacteria. It, though, generally has slower antibacterial activity against Staphylococcus as compared to against Enterococcus. FOS used in the fourth treatment Tr4 has a broad antibacterial activity against both gram-positive and gram-negative bacteria. It, though, generally has a slower antibacterial activity against Staphylococcus as compared to against Enterococcus. Bacterial cells from the biological sample are preferably exposed to respective treatment in parallel. In this example, a respective impact parameter is determined for each treatment after a respective treatment period (T1 to T5) and then compared to a respective cutoff or threshold value. The respective treatment periods T1 to T5 could be the same but are typically different and adapted to the particular antimicrobial agent or mixture or salt or salt mixture. […] A urine sample was loaded into the microfluidic device 5 and bacterial growth was monitored in the different sets 130 of cell channels. […]
structure (smiles),measurement,value
"[Cl-].[Na+] [NaCl, sodium chloride]",candidate gram classification indicated by treatment,gram negative
